According to US6737383B1, “Herbicidal oxadiazolidines” (priority 1999, dated 2004):

Experiments:
[1] = test system: duck salad; assay: Test B flood test duck salad; format: in vivo, Heteranthera limosa
Summary of the method: (§1)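 Read-out is a visual response score from 0 (no effect) to 10 (complete control), assigned by comparison with untreated controls. Treatment was applied at the 2-leaf stage, and plants stayed in the greenhouse for twelve to sixteen days before scoring.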

[2] = test system: pigweed; assay: Test B pre/postemergence pigweed; format: in vivo, Amaranthus retroflexus; settings: for Redroot pigweed plant response rating: scale of 0 to 10 where 0 is no effect and 10 is complete control
Summary of the method: (§2)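 Response is a visual 0-to-10 score relative to untreated plants, where 0 means no effect and 10 means complete control, taken twelve to sixteen days after application. Treatments went onto soil at planting and onto foliage of 1- to 4-leaf plants, using a surfactant-containing non-phytotoxic solvent.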

[3] = test system: smallflower flatsedge; assay: Test B flood test smallflower flatsedge; format: in vivo, Cyperus difformis
Summary of the method: as §1

[4] = test system: morningglory; assay: Test B pre/postemergence morningglory; format: in vivo, Ipomoea hederacea; settings: for Morningglory plant response rating: scale of 0 to 10 where 0 is no effect and 10 is complete control
Summary of the method: as §2

[5] = test system: rape; assay: Test B pre/postemergence rape; format: in vivo, Brassica napus; settings: for Rape plant response rating: scale of 0 to 10 where 0 is no effect and 10 is complete control
Summary of the method: as §2

[6] = test system: velvetleaf; assay: Test B pre/postemergence velvetleaf; format: in vivo, Abutilon theophrasti; settings: for Velvetleaf plant response rating: scale of 0 to 10 where 0 is no effect and 10 is complete control
Summary of the method: as §2

[7] = test system: surinam grass; assay: Test B pre/postemergence surinam grass; format: in vivo, Brachiaria decumbens
Summary of the method: as §2

[8] = test system: rice; assay: Test B flood test rice; format: in vivo, Oryza sativa
Summary of the method: as §1

[9] = test system: blackgrass; assay: Test B pre/postemergence blackgrass; format: in vivo, Alopecurus myosuroides
Summary of the method: as §2

[10] = test system: corn; assay: Test B pre/postemergence corn; format: in vivo, Zea mays; settings: for Corn plant response rating: scale of 0 to 10 where 0 is no effect and 10 is complete control
Summary of the method: as §2

[11] = test system: giant foxtail; assay: Test B pre/postemergence giant foxtail; format: in vivo, Setaria faberii; settings: for Giant foxtail plant response rating: scale of 0 to 10 where 0 is no effect and 10 is complete control
Summary of the method: as §2

[12] = test system: soybean; assay: Test B pre/postemergence soybean; format: in vivo, Glycine max; settings: for Soybean plant response rating: scale of 0 to 10 where 0 is no effect and 10 is complete control
Summary of the method: as §2

[13] = test system: bedstraw; assay: Test B pre/postemergence bedstraw; format: in vivo, Galium aparine; settings: Preemergence; for Bedstraw plant response rating: scale of 0 to 10 where 0 is no effect and 10 is complete control
Summary of the method: as §2

[14] = test system: purple nutsedge; assay: Test B pre/postemergence purple nutsedge; format: in vivo, Cyperus rotundus; settings: for Nutsedge plant response rating: scale of 0 to 10 where 0 is no effect and 10 is complete control
Summary of the method: as §2

[15] = test system: sugar beet; assay: Test B pre/postemergence sugar beet; format: in vivo, Beta vulgaris; settings: for Sugarbeets plant response rating: scale of 0 to 10 where 0 is no effect and 10 is complete control
Summary of the method: as §2

[16] = test system: bamyardgrass; assay: Test B flood test barnyardgrass; format: in vivo, Echinochloa crus-galli
Summary of the method: as §1

[17] = Postemergence (flood test), Rate 125 g/ha, scale 0 to 10, 0 is no effect, 10 is complete control
[18] = Rate 62 g/ha, Postemergence (flood test species), scale of 0 to 10 where 0 is no effect and 10 is complete control
[19] = Rate 62 g/ha, flood test species, Pre-emergence, visual evaluation after twelve to sixteen days
[20] = Rate 125 g/ha, Pre-emergence, flood test species, scale 0 to 10 where 0 is no effect and 10 is complete control
[21] = Rate 250 g/ha, Pre-emergence, flood-test species, scale 0 to 10, 0 is no effect, 10 is complete control
[22] = Rate 500 g/ha, listed under Postemergence (flood test species), scale 0 to 10, 0 no effect, 10 complete control
[23] = Rate 500 g/ha, Pre-emergence, flood test species, scale 0 to 10 (0 no effect, 10 complete control)
[24] = Postemergence, Rate 125 g/ha, scale 0 to 10, 0 is no effect, 10 is complete control
[25] = Preemergence, Rate 62 g/ha, scale 0 to 10 (0 no effect, 10 complete control)
[26] = Rate 500 g/ha, Postemergence, scale 0 to 10, 0 no effect, 10 complete control
[27] = Preemergence, Rate 250 g/ha, scale of 0 to 10 where 0 is no effect and 10 is complete control
[28] = Preemergence, Rate 500 g/ha, scale of 0 to 10 where 0 is no effect and 10 is complete control
[29] = Rate 62 g/ha, Postemergence, scale of 0 to 10 where 0 is no effect and 10 is complete control
[30] = Rate 250 g/ha, Postemergence, scale of 0 to 10 where 0 is no effect and 10 is complete control

CC(C)N(C(=O)n1oc(=O)n(C2CCC2)c1=O)c1ccc(F)cc1 [Compound 350]
Plant response rating, Ducksalad [1, 17]: 2 | Ducksalad plant response rating [1, 18]: 0 | Plant response rating, Ducksalad (0 to 10 scale, 0 is no effect, 10 is complete control) [1, 19]: 0 | Ducksalad plant response rating [1, 20]: 0 | Ducksalad plant response rating [1, 21]: 0 | Plant response rating, Ducksalad [1, 22]: 3 | Ducksalad plant response rating [1, 23]: 0 | Plant response rating, Redroot pigweed [2, 24]: 0 | Plant response rating, Redroot pigweed [2, 25]: 4 | Redroot pigweed plant response rating (0 to 10 scale) ([2]; Preemergence, Rate 125 g/ha): 10 | Redroot pigweed plant response rating ([2]; Preemergence, Rate 250 g/ha): 10 | Redroot pigweed plant response rating ([2]; Preemergence, Rate 500 g/ha): 10 | Redroot pigweed plant response rating ([2]; Rate 62 g/ha, Postemergence): 0 | Plant response rating, Redroot pigweed [2, 26]: 3 | Plant response rating, S. Flatsedge [3, 17]: 2 | S. Flatsedge plant response rating [3, 18]: 0 | Plant response rating, S. Flatsedge (0 to 10 scale, 0 is no effect, 10 is complete control) [3, 19]: 0 | S. Flatsedge plant response rating [3, 20]: 0 | S. Flatsedge plant response rating [3, 21]: 0 | Plant response rating, S. Flatsedge [3, 22]: 8 | S. Flatsedge plant response rating [3, 23]: 0 | Plant response rating, Morningglory [4, 24]: 6 | Plant response rating, Morningglory [4, 25]: 0 | Morningglory plant response rating (0 to 10 scale) ([4]; Preemergence, Rate 125 g/ha): 0 | Morningglory plant response rating ([4]; Preemergence, Rate 250 g/ha): 0 | Morningglory plant response rating ([4]; Preemergence, Rate 500 g/ha): 2 | Morningglory plant response rating ([4]; Rate 62 g/ha, Postemergence): 3 | Plant response rating, Morningglory [4, 26]: 9 | Plant response rating, Rape [5, 24]: 0 | Plant response rating, Rape [5, 25]: 0 | Rape plant response rating (0 to 10 scale) ([5]; Preemergence, Rate 125 g/ha): 0 | Rape plant response rating ([5]; Preemergence, Rate 250 g/ha): 7 | Rape plant response rating ([5]; Preemergence, Rate 500 g/ha): 10 | Rape plant response rating ([5]; Rate 62 g/ha, Postemergence): 0 | Plant response rating, Rape [5, 26]: 2 | Plant response rating, Velvetleaf [6, 24]: 0 | Plant response rating, Velvetleaf [6, 25]: 2 | Velvetleaf plant response rating (0 to 10 scale) ([6]; Preemergence, Rate 125 g/ha): 2 | Velvetleaf plant response rating ([6]; Preemergence, Rate 250 g/ha): 4 | Velvetleaf plant response rating ([6]; Preemergence, Rate 500 g/ha): 6 | Velvetleaf plant response rating ([6]; Rate 62 g/ha, Postemergence): 0 | Plant response rating, Velvetleaf [6, 26]: 6 | Plant response rating, B. signalgrass [7, 24]: 0 | Plant response rating, B. signalgrass [7, 25]: 0 | B. signalgrass plant response rating (0 to 10 scale, 0 is no effect, 10 is complete control) ([7]; Preemergence, Rate 125 g/ha): 0 | B. signalgrass plant response rating [7, 27]: 2 | B. signalgrass plant response rating [7, 28]: 4 | B. signalgrass plant response rating [7, 29]: 0 | Plant response rating, B. signalgrass [7, 30]: 0 | Plant response rating, B. signalgrass [7, 26]: 4 | Plant response rating, Rice [8, 17]: 0 | Rice plant response rating [8, 18]: 0 | Plant response rating, Rice (0 to 10 scale, 0 is no effect, 10 is complete control) [8, 19]: 0 | Rice plant response rating [8, 20]: 0 | Rice plant response rating [8, 21]: 0 | Plant response rating, Rice [8, 22]: 0 | Rice plant response rating [8, 23]: 0 | Plant response rating, Blackgrass [9, 24]: 4 | Plant response rating, Blackgrass [9, 25]: 4 | Blackgrass plant response rating (0 to 10 scale) ([9]; Preemergence, Rate 125 g/ha): 5 | Blackgrass plant response rating [9, 27]: 8 | Blackgrass plant response rating [9, 28]: 8 | Blackgrass plant response rating [9, 29]: 4 | Plant response rating, Blackgrass [9, 30]: 7 | Plant response rating, Blackgrass [9, 26]: 7 | Plant response rating, Corn [10, 24]: 0 | Plant response rating, Corn [10, 25]: 0 | Corn plant response rating (0 to 10 scale) ([10]; Preemergence, Rate 125 g/ha): 0 | Corn plant response rating ([10]; Preemergence, Rate 250 g/ha): 0 | Corn plant response rating ([10]; Preemergence, Rate 500 g/ha): 7 | Corn plant response rating ([10]; Rate 62 g/ha, Postemergence): 0 | Plant response rating, Corn [10, 26]: 0 | Plant response rating, Giant foxtail [11, 24]: 8 | Plant response rating, Giant foxtail [11, 25]: 10 | Giant foxtail plant response rating (0 to 10 scale) ([11]; Preemergence, Rate 125 g/ha): 10 | Giant foxtail plant response rating ([11]; Preemergence, Rate 250 g/ha): 10 | Giant foxtail plant response rating ([11]; Preemergence, Rate 500 g/ha): 10 | Giant foxtail plant response rating ([11]; Rate 62 g/ha, Postemergence): 5 | Plant response rating, Giant foxtail [11, 26]: 9 | Plant response rating, Soybean [12, 24]: 1 | Plant response rating, Soybean [12, 25]: 0 | Soybean plant response rating (0 to 10 scale) ([12]; Preemergence, Rate 125 g/ha): 0 | Soybean plant response rating ([12]; Preemergence, Rate 250 g/ha): 0 | Soybean plant response rating ([12]; Preemergence, Rate 500 g/ha): 2 | Soybean plant response rating ([12]; Rate 62 g/ha, Postemergence): 1 | Plant response rating, Soybean [12, 26]: 3 | Plant response rating, Bedstraw ([13]; Rate 62 g/ha, scale 0 to 10 (0 no effect, 10 complete control)): 10 | Bedstraw plant response rating (0 to 10 scale) ([13]; Rate 125 g/ha): 10 | Bedstraw plant response rating ([13]; Rate 250 g/ha): 10 | Bedstraw plant response rating ([13]; Rate 500 g/ha): 10 | Plant response rating, Nutsedge [14, 24]: 0 | Nutsedge plant response rating (0 to 10 scale) ([14]; Preemergence, Rate 125 g/ha): 0 | Nutsedge plant response rating ([14]; Preemergence, Rate 250 g/ha): 0 | Nutsedge plant response rating ([14]; Preemergence, Rate 500 g/ha): 10 | Nutsedge plant response rating ([14]; Rate 62 g/ha, Postemergence): 0 | Plant response rating, Nutsedge [14, 26]: 0 | Plant response rating, Sugarbeets [15, 24]: 0 | Plant response rating, Sugarbeets [15, 25]: 2 | Sugarbeets plant response rating (0 to 10 scale) ([15]; Preemergence, Rate 125 g/ha): 2 | Sugarbeets plant response rating ([15]; Preemergence, Rate 250 g/ha): 4 | Sugarbeets plant response rating ([15]; Preemergence, Rate 500 g/ha): 9 | Sugarbeets plant response rating ([15]; Rate 62 g/ha, Postemergence): 0 | Plant response rating, Sugarbeets [15, 26]: 0 | Plant response rating, Barnyardgrass [16, 17]: 0 | Barnyardgrass plant response rating [16, 18]: 0 | Plant response rating, Barnyardgrass (0 to 10 scale, 0 is no effect, 10 is complete control) [16, 19]: 0 | Barnyardgrass plant response rating [16, 20]: 0 | Plant response rating, Barnyardgrass ([16]; Rate 250 g/ha, Postemergence (flood test species), scale of 0 to 10 where 0 is no effect and 10 is complete control): 3 | Barnyardgrass plant response rating [16, 21]: 0 | Plant response rating, Barnyardgrass [16, 22]: 5 | Barnyardgrass plant response rating [16, 23]: 0
